Data reported in US20100179158A1, “INHIBITORS OF CYCLIC AMP PHOSPHODIESTERASES” (priority 2007, published 2010).

Tests used:
PDE4D2 = target: T1, PDE4D2 (Homo sapiens, UniProt Q08499); test: cAMP assay in yeast strain expressing PDE4D2; format: cell-based
T1 construct: targets used in the assays are full-length proteins (as opposed to simply the catalytic domain); expressed in transfected cells; host or cells: Schizosaccharomyces pombe

PDE4B3 = target: T2, PDE4B3 (Mus musculus, UniProt Q8VBU5); test: cAMP assay in yeast strain expressing PDE4B3; format: cell-based, murine
T2 construct: targets used in the assays are full-length proteins (as opposed to simply the catalytic domain); expressed in transfected cells; host or cells: Schizosaccharomyces pombe, gene integrated at the cgs2 locus
T2 sequence (Q8VBU5 1-721): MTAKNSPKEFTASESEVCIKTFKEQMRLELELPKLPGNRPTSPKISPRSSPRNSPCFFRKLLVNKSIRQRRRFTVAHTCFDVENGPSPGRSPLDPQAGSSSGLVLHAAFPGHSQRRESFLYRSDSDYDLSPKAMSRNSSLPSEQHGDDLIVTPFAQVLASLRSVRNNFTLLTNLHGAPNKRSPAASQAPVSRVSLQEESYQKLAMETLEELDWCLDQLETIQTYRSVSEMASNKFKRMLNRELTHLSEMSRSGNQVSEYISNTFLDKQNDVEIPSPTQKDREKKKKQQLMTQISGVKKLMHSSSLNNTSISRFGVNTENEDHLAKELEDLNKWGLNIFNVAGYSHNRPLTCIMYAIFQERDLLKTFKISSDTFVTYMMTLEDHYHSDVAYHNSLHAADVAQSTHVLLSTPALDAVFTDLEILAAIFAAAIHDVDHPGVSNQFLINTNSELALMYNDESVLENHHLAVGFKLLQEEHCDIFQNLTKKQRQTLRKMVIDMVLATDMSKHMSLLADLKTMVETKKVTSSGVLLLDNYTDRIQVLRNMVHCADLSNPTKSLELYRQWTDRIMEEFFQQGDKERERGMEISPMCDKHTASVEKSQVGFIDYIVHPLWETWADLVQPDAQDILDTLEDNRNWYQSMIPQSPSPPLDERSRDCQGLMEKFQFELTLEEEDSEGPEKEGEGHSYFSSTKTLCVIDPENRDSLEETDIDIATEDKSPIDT

PDE4D3 [1] = target: T3, PDE4D3 (Homo sapiens, UniProt Q08499); test: Fission yeast 5FOA growth assay, strain expressing PDE4D3; format: cell-based; settings: 2 uM compound, 5FOA growth screen
T3 construct: targets used in the assays are full-length proteins (as opposed to simply the catalytic domain); expressed in transfected cells; host or cells: Schizosaccharomyces pombe, gene integrated at the cgs2 locus
Procedure: Cells were pregrown in EMM medium [MP Biomedicals (Solon, OH), 3% glucose, filter-sterilized to avoid carmelization, which would introduce variability into the optical density of the medium] containing from 0 mM to 2.5 mM cAMP (or either 0.5 mM or 1.0 mM cGMP). This was to repress expression of the fbp1-ura4 reporter prior to exposure of cells to 5FOA medium. Cells were grown at 30° C. to exponential phase (approximately 10^7 cells/ml). Cells were collected by centrifugation and resuspended in 5FOA medium, and 25 μl were transferred to 384-well microtiter dishes (untreated, with flat clear bottoms) that had been pre-filled with 25 μl 5FOA medium and pre-pinned with 100 nl of compounds (stock solutions were generally 10 mM). Starting cell concentrations ranged from 0.5×10^5 to 4×10^5 cells/ml depending on the screening strain. […] Other positive control dishes contained 5 mM cAMP in the 5FOA medium for PDEs that lack appropriate control compounds. Cultures were grown for 48 hours at 30° C., sealed in an airtight container with moist paper towels to prevent evaporation. Optical densities (OD600) of cultures were measured using a microplate reader. Bioinformatic analysis of the results to determine composite Z scores was performed as previously described (1, 3).

PDE4D3 [2] = target: T3, PDE4D3; test: cAMP assay in yeast strain expressing PDE4D3; format: cell-based
PDE4A1 [3] = target: T4, PDE4A1 (Mus musculus, UniProt O89084); test: cAMP assay in yeast strain expressing PDE4A1; format: cell-based, murine
T4 construct: targets used in the assays are full-length proteins (as opposed to simply the catalytic domain); expressed in transfected cells; host or cells: Schizosaccharomyces pombe, gene integrated at the cgs2 locus
T4 sequence (O89084 1-610 isoform O89084-2): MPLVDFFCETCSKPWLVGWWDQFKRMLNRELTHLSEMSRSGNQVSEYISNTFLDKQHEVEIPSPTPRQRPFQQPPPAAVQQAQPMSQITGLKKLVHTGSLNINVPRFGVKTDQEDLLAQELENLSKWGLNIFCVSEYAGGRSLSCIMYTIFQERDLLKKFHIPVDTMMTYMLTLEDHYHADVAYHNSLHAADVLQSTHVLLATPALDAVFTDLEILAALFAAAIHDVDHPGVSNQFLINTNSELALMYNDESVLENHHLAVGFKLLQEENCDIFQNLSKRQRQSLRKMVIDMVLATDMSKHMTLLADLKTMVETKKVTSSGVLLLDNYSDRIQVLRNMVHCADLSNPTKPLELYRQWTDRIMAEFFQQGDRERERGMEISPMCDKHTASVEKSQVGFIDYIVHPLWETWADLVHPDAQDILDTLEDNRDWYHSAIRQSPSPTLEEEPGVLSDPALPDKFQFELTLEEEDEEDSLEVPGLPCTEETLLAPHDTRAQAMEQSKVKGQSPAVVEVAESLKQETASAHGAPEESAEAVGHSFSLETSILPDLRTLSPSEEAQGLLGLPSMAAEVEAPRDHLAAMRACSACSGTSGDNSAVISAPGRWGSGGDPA

PDE4D3 [4] = target: T3, PDE4D3; test: IC50 on PDE4D3; format: biochemical; settings: read-out: IC50, PDE 4D3
PDE4A1 [5] = target: T4, PDE4A1; test: IC50 on PDE4A1; format: biochemical, murine; settings: read-out: IC50, PDE 4A1

T3 sequence (Q08499 1-673 isoform Q08499-2): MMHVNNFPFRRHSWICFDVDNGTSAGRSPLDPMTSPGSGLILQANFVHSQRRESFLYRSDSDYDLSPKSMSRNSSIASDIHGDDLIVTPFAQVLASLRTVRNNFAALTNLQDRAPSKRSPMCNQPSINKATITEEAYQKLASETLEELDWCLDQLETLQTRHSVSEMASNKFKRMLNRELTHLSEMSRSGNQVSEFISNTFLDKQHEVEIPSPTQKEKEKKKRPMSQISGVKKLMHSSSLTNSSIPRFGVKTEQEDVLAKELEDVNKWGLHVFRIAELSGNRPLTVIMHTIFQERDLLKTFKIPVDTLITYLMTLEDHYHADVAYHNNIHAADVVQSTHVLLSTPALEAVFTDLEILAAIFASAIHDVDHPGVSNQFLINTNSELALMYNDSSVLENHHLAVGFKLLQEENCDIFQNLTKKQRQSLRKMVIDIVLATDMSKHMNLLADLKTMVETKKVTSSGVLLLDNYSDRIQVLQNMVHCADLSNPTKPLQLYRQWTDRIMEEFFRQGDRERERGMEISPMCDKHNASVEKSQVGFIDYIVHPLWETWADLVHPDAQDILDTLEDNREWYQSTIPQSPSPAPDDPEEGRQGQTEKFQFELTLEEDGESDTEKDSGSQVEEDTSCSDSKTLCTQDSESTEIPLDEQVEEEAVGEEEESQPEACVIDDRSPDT
T1 sequence (Q08499 303-809): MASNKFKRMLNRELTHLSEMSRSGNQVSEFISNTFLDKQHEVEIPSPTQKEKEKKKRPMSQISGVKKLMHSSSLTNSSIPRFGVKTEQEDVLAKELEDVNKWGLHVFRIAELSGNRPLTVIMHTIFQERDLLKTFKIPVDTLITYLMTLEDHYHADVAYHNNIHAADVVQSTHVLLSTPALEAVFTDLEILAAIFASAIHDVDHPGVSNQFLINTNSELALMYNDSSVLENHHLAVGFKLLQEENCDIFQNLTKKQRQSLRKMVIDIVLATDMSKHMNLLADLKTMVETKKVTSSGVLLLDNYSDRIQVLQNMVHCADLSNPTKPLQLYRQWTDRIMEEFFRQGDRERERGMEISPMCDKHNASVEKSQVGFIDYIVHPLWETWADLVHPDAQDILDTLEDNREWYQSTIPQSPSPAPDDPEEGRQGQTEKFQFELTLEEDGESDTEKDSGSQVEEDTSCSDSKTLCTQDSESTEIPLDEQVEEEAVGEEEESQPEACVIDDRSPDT

Compound	cAMP Response (% rolipram), PDE 4D2 (PDE4D2)	cAMP Response (% rolipram), PDE 4B3 (PDE4B3) [% rolipram]	2 Assay (2 uM), PDE 4D3 (PDE4D3 [1])	cAMP Response (% rolipram), PDE 4D3 (PDE4D3 [2]) [% rolipram]	cAMP Response (% rolipram), PDE 4A1 (PDE4A1 [3]) [% rolipram]	IC50 (PDE4D3 [4]) [nM]	IC50 (PDE4A1 [5]) [nM]
COC(=O)C1=C(C)N(C2CCCCC2)C(=O)/C1=C\c1cccs1 [Compound 22]	ND ND ND 34.00 ND % rolipram	51.00	42.32	12.00	54.00		
COC(=O)C1=C(C)N(c2ccccc2Cl)C(=O)/C1=C\c1cccs1 [Compound 27]	ND ND ND 11.00 ND % rolipram	71.00	0.00	8.00	78.00	100	100
Cc1ccc2c(c1)c1nc3ccccc3nc1n2C(C)C [Compound 41]						200	650
